Test results published in paper PMC5870190, “A three-in-one-bullet for oesophageal cancer: replication fork collapse, spindle attachment failure and enhanced radiosensitivity generated by a ruthenium(II) metallo-intercalator” (Chemical Science, 2017).

Assays:
[1] = test system: OE21 human oesophageal squamous cell carcinoma; test: MTT assay, OE21 cells; assay type: cell-based; details: for IC50: MTT
Experimental: MTT assay. OE21, FLO-1 or hSAEC1-KT cells were seeded in 96 well plates at 20,000 cells/well (for 24 h treatment) or 10,000 cells/well (for 72 h treatment) and allowed to adhere for 24 h before treatment. OE33 cells were seeded in 48 well plates at 40,000 cells/well (24 h treatment) or 20,000 cells/well (72 h treatment). Cancer cell lines were treated with chemicals dissolved in RPMI media for consistency. After incubation, 0.5 mg/ml MTT (thiazolyl blue tetrazolium bromide) dissolved in serum-free medium was added for 60 minutes and the formazan product eluted using acidified isopropanol.
(§1) The absorbance at 540 nm was quantified by plate reader (reference wavelength 650 nm). The metabolic activity of the cell population was determined as a percentage of a negative (solvent) control. […]
For the determination of mutation induction, from the untreated and each treated condition, 2x10^5 cells were plated in 10 x 100 mm dishes in selective media (regular media

OE21 cells = test: Micronuclei formation, OE21; assay type: cell-based, human; details: 20 μM Ru1, 24 h incubation
Experimental: propidium iodide (PI) is standard to quantify DNA content using flow cytometry, bleed-through of the MLCT emission of […]
To remove these artefacts, a higher concentration of Ru1 (100 µM, 10 mins) was additionally applied post-incubation and fixation to treated and control samples, acting as a substitute DNA dye instead of PI. After staining, cells were centrifuged (1000 rpm, 5 mins) and re-suspended in PBS.
Samples were analysed using a Biosciences LSRII Flow Cytometer using the FL2 channel to collect (recognisable) cell-cycle […]
profiles. […] A minimum of
10,000 cells were counted for each sample and data were processed using FloJo software.
Microscopy and immunofluorescence. […]
emission was collected from 500-530 nm to prevent spectral overlap with Ru1 emission. γH2AX foci were counted using […]
as §1
Cell cultures were treated as stated, media containing detached/dead cells were removed and retained, and adherent collected by Trypsin and centrifugation. […] Trypan Blue negative and Trypan Blue positive cells were counted by haemocytometer. A minimum of 200 cells were counted for each sample. […]

FLO-1 cells = test: Clonogenic survival assay with IR, FLO-1; assay type: cell-based, human; details: Ru1 2 μM or Cis 300 nM for 24 h before IR
Experimental: Clonogenic survival assay. OE21, OE33 or FLO1 cells were treated with 2 µM Ru1 for 24 h before irradiation with 0-8 Gy using a 137Cs γ-irradiator (IBL637, CIS Bio Int.; dose rate = 0.809 Gy min−1). 1 h after irradiation, cells were detached using Trypsin and re-seeded in 6 well plates at a density of 300 – 20,000 cells/well in triplicate in an incrementally greater number of cells with increasing IR dose to ensure adequate colony formation. Cells were incubated for 7–14 days after re-seeding to allow colony formation before being fixed with 10% methanol, 10% acetic acid and stained with 0.4% methylene blue. OE33 cells required an additional formaldehyde fixation (4% in PBS, 5 mins) step before the addition of methylene blue solution or colony detachment occurred. Colonies containing 50 cells or greater were counted using a Gelcount instrument and accompanying software (Oxford Optronix). Plating efficiencies were determined for each treatment condition and normalised to an untreated control to provide the surviving fraction (S. F.). S.F. versus radiation dose curves were plotted in GraphPad Prism and fit using a second order polynomial function (R2 values > 0.99). Dose modifying factors (DMF) at a SF=0.1 were calculated using the equation: Dose modifying factor (DMF) = IR dose to give S.F. 0.1/IR dose plus compound to give S.F.0.1. […]

[Ru(phen)2(tpphz)]^2+ [Ru1]
IC50 ([1]; OE21, 24 h constant exposure): 21 ± 4.2 µM
IC50 ([1]; OE21, 72 h constant exposure): 2.9 ± 1.5 µM
greater potency than cisplatin ([1]; OE21, 72 h incubation): two-fold
Cells with micronuclei, Percentage (OE21 cells; OE21 (n=1)): 17.8%
Cells with micronuclei, Percentage (OE21 cells; OE21 (n=2)): 15.0%
S.F. (FLO-1 cells; FLO-1, IR 0 Gy): 0.873
S.F. (FLO-1 cells; FLO-1, IR 2 Gy): 0.188
S.F. (FLO-1 cells; FLO-1, IR 4 Gy): 0.042
S.F. (FLO-1 cells; FLO-1, IR 6 Gy): 0.005
